In PMC10544029, “Design, Synthesis, and Application of Fluorescent Ligands Targeting the Intracellular Allosteric Binding Site of the CXC Chemokine Receptor 2” (Journal of Medicinal Chemistry, 2023):

How the values were obtained:
CXCR1 = target: T1, CXCR1 (Homo sapiens, UniProt P25024); assay: CXCR1-NanoLuc NanoBRET saturation binding in membranes; conditions: result in words
T1 construct: expressed in transfected cells; membranes
T1 sequence (P25024 1-350): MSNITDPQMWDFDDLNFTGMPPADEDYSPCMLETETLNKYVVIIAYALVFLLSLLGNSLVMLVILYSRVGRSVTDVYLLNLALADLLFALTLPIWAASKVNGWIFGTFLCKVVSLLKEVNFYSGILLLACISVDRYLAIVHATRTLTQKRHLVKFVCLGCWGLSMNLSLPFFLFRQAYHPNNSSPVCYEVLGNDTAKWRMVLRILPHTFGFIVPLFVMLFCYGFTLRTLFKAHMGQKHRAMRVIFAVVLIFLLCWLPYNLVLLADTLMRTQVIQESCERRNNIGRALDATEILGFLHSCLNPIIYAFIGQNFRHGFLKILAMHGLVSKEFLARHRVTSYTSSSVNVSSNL
Description: NanoBRET assays were carried out in OptiPlate-384 white well microplates (product number: 6007290, PerkinElmer LAS Ltd., UK) and used 25 mM HEPES, 1% DMSO, 0.1 mg/mL Saponin, 0.2 mg Pluronic acid F127, 1 mM MgCl2 and 0.1% BSA (pH 7.4) assay buffer. Both saturation and competition assays employed 1 μg/well HEK 293 SNAP-CXCR2-NanoLuc or SNAP-CXCR1-NanoLuc cell membranes for characterization of fluorescent ligand binding and employed 100 nM or 10 μM R-navarixin (2) to define non-specific binding (NSB). […] Membranes were incubated with furimazine at a 1/660 dilution for 5 min prior to addition to the assay plate, allowing for equilibration of luminescence output. NanoBRET was monitored every 15 s for 60 min at 37 °C measuring Nanoluciferase output (450 nm) and BODIPY 630–650 output (630 nm [610-LP filter]), generating a BRET ratio (630 nm/450 nm), using a BMG PHERAstar FS (BMG Labtech). Collected data was converted to specific binding measurements through subtraction of NSB data and analyzed by endpoint saturation analysis, allowing determination of ligand dissociation constant (KD) through [drawing 1] 1

[1] = Chemical stability on purification and isolation; assay type: physicochemical; conditions: purification by normal and reverse-phase chromatography
[2] = test system: SNAP-tagged CXCR2-tsNanoLuc HEK293; assay: Live cell imaging of fluorescent ligand binding to SNAP-tagged CXCR2-tsNanoLuc HEK293; assay type: cell-based, human; conditions: 1 μM 11a, 10 min at 37 °C, specific, displaced by 10 μM 2
Description: HEK 293 cells expressing SNAP-CXCR2-tsNanoLuc were seeded on black, clear bottom, poly-D-lysine-coated 96-well plates (Greiner 655097) at a density of 30,000 cells/well and allowed to grow overnight. Post-incubation, growth media were replaced with Hepes balances salt solution supplemented with 0.1% BSA (HBSS +0.1% BSA), 0.1 μM SNAP-surface AF488, 2 μg/mL Hoechst 33342 nuclear stain (H33342), and either HBSS +0.1% BSA or 10 μM (R)-navarixin (2).

SMILES	CXCR1 specific binding (CXCR1)	chemical stability [1]	fluorescent labelling of cells [2]
CC[C@@H](Nc1c(Nc2cccc(C(=O)NCCNC(=O)CNC(=O)CCCCCNC(=O)COc3ccc(/C=C/C4=[N+]5C(=Cc6ccc(-c7cccs7)n6[B-]5(F)F)C=C4)cc3)c2O)c(=O)c1=O)c1ccc(C)o1 [11c, (R,E)-N-(2-(2-(6-(2-(4-(2-(5,5-Difluoro-7-(thiophen-2-yl)-5H-4λ4,5λ4-dipyrrolo[1,2-c:2′,1′-f][1,3,2]diazaborinin-3-yl)vinyl)phenoxy)acetamido)hexanamido)acetamido)ethyl)-2-hydroxy-3-((2-((1-(5-methylfuran-2-yl)propyl)amino)-3,4-dioxocyclobut-1-en-1-yl)amino)benzamide]	no CXCR1 specific binding		
CC[C@@H](Nc1c(Nc2cccc(C(=O)N(C)CCNC(=O)OCC3c4ccccc4-c4ccccc43)c2O)c(=O)c1=O)c1ccc(C)o1 [10b, (9H-Fluoren-9-yl)methyl(R)-(2-(2-hydroxy-N-methyl-3-((2-((1-(5-methylfuran-2-yl)propyl)amino)-3,4-dioxocyclobut-1-en-1-yl)amino)benzamido)ethyl)carbamate]		chemically unstable	
CC[C@@H](Nc1c(Nc2cccc(C(=O)NCCNC(=O)CCNC(=O)CCCCCNC(=O)COc3ccc(/C=C/C4=[N+]5C(=Cc6ccc(-c7cccs7)n6[B-]5(F)F)C=C4)cc3)c2O)c(=O)c1=O)c1ccc(C)o1 [11e, (R,E)-N-(2-(3-(6-(2-(4-(2-(5,5-Difluoro-7-(thiophen-2-yl)-5H-4λ4,5λ4-dipyrrolo[1,2-c:2′,1′-f][1,3,2]diazaborinin-3-yl)vinyl)phenoxy)acetamido)hexanamido)propanamido)ethyl)-2-hydroxy-3-((2-((1-(5-methylfuran-2-yl)propyl)amino)-3,4-dioxocyclobut-1-en-1-yl)amino)benzamide]	no CXCR1 specific binding		
CC[C@@H](Nc1c(Nc2cccc(C(=O)NCCNC(=O)CCCCCNC(=O)COc3ccc(/C=C/C4=[N+]5C(=Cc6ccc(-c7cccs7)n6[B-]5(F)F)C=C4)cc3)c2O)c(=O)c1=O)c1ccc(C)o1 [11a, (R,E)-N-(2-(6-(2-(4-(2-(5,5-Difluoro-7-(thiophen-2-yl)-5H-4λ4,5λ4-dipyrrolo[1,2-c:2’,1’-f][1,3,2]diazaborinin-3-yl)vinyl)phenoxy)acetamido)hexanamido)ethyl)-2-hydroxy-3-((2-((1-(5-methylfuran-2-yl)propyl)amino)-3,4-dioxocyclobut-1-en-1-yl)amino)benzamide]	no CXCR1 specific binding		both cell surface and intracellular endosomal fluorescent labelling
